Reference: patent US8765748B2, “Indazolyl, benzimidazolyl, benzotriazolyl substituted indolinone derivatives as kinase inhibitors useful in the treatment of cancer” (University Health Network, priority 2007, dated 2014)
Entries after “also recorded” stand apart in the source; their conditions may differ.

Assays:
[1] = target: T1, human PLK4 (Homo sapiens, UniProt O00444); assay: PLK4 Inhibition Assay (indirect ELISA); format: biochemical; conditions: 15 μM ATP, 4 nM GST-PLK4; read-out: PLK4 IC50 Ranges
T1 construct: amino terminal GST fusion of residues 1-391 of human PLK4; made in house; host or cells: E. coli
T1 sequence (O00444 1-391): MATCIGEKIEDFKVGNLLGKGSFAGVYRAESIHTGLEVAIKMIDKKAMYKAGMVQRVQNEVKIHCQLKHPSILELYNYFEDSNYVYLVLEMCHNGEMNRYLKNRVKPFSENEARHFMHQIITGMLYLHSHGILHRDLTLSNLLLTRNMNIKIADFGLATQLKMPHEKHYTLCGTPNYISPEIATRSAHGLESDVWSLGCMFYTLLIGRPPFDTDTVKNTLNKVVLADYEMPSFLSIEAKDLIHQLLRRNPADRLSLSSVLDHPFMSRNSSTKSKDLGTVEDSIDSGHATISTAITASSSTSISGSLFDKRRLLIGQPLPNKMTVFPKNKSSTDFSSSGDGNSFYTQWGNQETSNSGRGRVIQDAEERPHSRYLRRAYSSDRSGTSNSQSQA
Method in brief: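 Dephosphorylated (lambda phosphatase) GST-PLK4 activity read by indirect ELISA. Compounds were pre-incubated with enzyme for 15 minutes before ATP was added. IC50 came from a non-linear 4-point logistic fit.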

[2] = target: T2, PLK2 (Homo sapiens, UniProt Q9NYY3); assay: PLK2 Inhibition Assay (Z-Lyte); format: biochemical; conditions: 10 μM compound; read-out: PLK2 relative inhibition percentage at a dose of 10 μM
T2 construct: purchased Invitrogen PV4204
Protocol: (§1) PLK2 inhibition was determined using the Z-Lyte assay kit from Invitrogen (cat #PV3802). The assay was performed using the recommended manufacturer's instructions with 60 μM ATP and 133 nM PLK2 (Invitrogen cat #PV4204). The % inhibition values were determined according to the manufacturer's directions and IC50 values were obtained using a non-linear 4 point logistic curve fit (XLfit4, IDBS)

[3] = target: T3, Aurora A (Homo sapiens, UniProt O14965); assay: Aurora A Inhibition Assay (Z-Lyte); format: biochemical; conditions: 20 μM ATP, 12 nM Aurora A; read-out: Aurora A IC50 Ranges
T3 construct: purchased Invitrogen PV3612
T3 sequence (O14965 1-403): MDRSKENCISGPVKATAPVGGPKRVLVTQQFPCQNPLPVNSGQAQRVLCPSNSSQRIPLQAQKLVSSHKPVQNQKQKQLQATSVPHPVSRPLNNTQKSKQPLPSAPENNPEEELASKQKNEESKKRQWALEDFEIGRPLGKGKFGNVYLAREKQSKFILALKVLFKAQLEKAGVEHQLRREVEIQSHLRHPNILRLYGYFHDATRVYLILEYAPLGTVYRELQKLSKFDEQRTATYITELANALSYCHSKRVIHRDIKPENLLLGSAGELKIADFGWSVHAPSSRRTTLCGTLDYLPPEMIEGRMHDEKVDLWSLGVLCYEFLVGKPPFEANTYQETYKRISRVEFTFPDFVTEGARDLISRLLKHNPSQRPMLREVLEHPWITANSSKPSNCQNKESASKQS
Protocol: as §1, with “Aurora A” for “PLK2”, “Invitrogen.” for “Invitrogen (cat #PV3802).”, “20” for “60”, “12” for “133”, “#PV3612).” for “#PV4204).”

[4] = target: T4, Aurora B (Homo sapiens, UniProt Q96GD4); assay: Aurora B Inhibition Assay (Z-Lyte); format: biochemical; conditions: 128 μM ATP, 28 nM Aurora B; read-out: Aurora B IC50 Ranges
T4 construct: purchased Invitrogen PV3970
Protocol: as §1, with “Aurora B” for “PLK2”, “Invitrogen.” for “Invitrogen (cat #PV3802).”, “128” for “60”, “28” for “133”, “#PV3970).” for “#PV4204).”

[5] = target: FGFR1; assay: Millipore kinase assay, radiolabelled phosphopeptide filter binding, IC50 estimate; format: biochemical; conditions: estimated from inhibition at three compound concentrations; ATP at the Km
Protocol: (§2) Kinase assays at Millipore were performed using a radiolabelled phosphopeptide filter binding detection system, in duplicate, at each compound concentration. The ATP substrate concentration in the reactions was at the Km for each enzyme.
(§3) To allow for a more direct comparison of compound inhibition, an IC50 value was estimated from the inhibition determined at three compound concentrations. Several assumptions were made to allow this calculation using a 4 parameter non linear curve fit model, including full inhibition set at 100%, no inhibition set to 0%, and a curve fit parameter set at 1. The inflection point was reported as the estimated IC50.

[6] = target: T5, FLT-1 (Homo sapiens, UniProt P17948); assay: as above; format: biochemical; conditions: estimated from inhibition at three compound concentrations; ATP at the Km
T5 construct: purchased Millipore (assay service)
Protocol: as §2, §3

[7] = target: T6, KDR (Homo sapiens, UniProt P35968); assay: as above; format: biochemical; conditions: estimated from inhibition at three compound concentrations; ATP at the Km
T6 construct: purchased Millipore (assay service)
Protocol: as §2, §3

[8] = target: T7, PDGFRβ (Homo sapiens, UniProt P09619); assay: as above; format: biochemical; conditions: estimated from inhibition at three compound concentrations; ATP at the Km
T7 construct: purchased Millipore (assay service)
Protocol: as §2, §3

[9] = system: HUV-EC-C cells; assay: In Vitro Angiogenesis Assay (tube formation); format: cell-based; conditions: 4 hr incubation, 8,000 cells per well, FIG. 1
Protocol: HUV-EC-C cells were obtained from the American Type Culture Collection (ATCC, CRL-1730), and were used at early passage for the assay. The in vitro Angiogenesis Assay Kit (Chemicon) was used according to the manufacturer's recommendation. An ice-cold mixture of ECMatrix was transferred into a precooled 96-well plate. After the matrix solution had solidified (>1 hr incubation at 37° C.), 8,000 cells were mixed with the appropriate inhibitor concentration (in 100 microliters EGM-2) and plated into each well. After incubation at 37° C. for 4 hr, tube formation was inspected. Two methods, pattern recognition and branch point counting, were used to quantify the progression of angiogenesis and expressed as a percentage of the control tube count (FIG. 1).

[10] = target: Abl (Homo sapiens, UniProt P00519); assay: Millipore kinase assay, radiolabelled phosphopeptide filter binding, IC50 estimate; format: biochemical; set-up: purchased Millipore (assay service); conditions: estimated from inhibition at three compound concentrations; ATP at the Km
Protocol: as §2, §3

[11] = target: Lyn (Homo sapiens, UniProt P07948); assay: as above; format: biochemical; set-up: purchased Millipore (assay service); conditions: estimated from inhibition at three compound concentrations; ATP at the Km
Protocol: as §2, §3

[12] = target: Ret (Homo sapiens, UniProt P07949); assay: as above; format: biochemical; set-up: purchased Millipore (assay service); conditions: estimated from inhibition at three compound concentrations; ATP at the Km
Protocol: as §2, §3

[13] = target: TRKA (Homo sapiens, UniProt P04629); assay: as above; format: biochemical; set-up: purchased Millipore (assay service); conditions: estimated from inhibition at three compound concentrations; ATP at the Km
Protocol: as §2, §3

Abl, sequence (P00519 whole entry): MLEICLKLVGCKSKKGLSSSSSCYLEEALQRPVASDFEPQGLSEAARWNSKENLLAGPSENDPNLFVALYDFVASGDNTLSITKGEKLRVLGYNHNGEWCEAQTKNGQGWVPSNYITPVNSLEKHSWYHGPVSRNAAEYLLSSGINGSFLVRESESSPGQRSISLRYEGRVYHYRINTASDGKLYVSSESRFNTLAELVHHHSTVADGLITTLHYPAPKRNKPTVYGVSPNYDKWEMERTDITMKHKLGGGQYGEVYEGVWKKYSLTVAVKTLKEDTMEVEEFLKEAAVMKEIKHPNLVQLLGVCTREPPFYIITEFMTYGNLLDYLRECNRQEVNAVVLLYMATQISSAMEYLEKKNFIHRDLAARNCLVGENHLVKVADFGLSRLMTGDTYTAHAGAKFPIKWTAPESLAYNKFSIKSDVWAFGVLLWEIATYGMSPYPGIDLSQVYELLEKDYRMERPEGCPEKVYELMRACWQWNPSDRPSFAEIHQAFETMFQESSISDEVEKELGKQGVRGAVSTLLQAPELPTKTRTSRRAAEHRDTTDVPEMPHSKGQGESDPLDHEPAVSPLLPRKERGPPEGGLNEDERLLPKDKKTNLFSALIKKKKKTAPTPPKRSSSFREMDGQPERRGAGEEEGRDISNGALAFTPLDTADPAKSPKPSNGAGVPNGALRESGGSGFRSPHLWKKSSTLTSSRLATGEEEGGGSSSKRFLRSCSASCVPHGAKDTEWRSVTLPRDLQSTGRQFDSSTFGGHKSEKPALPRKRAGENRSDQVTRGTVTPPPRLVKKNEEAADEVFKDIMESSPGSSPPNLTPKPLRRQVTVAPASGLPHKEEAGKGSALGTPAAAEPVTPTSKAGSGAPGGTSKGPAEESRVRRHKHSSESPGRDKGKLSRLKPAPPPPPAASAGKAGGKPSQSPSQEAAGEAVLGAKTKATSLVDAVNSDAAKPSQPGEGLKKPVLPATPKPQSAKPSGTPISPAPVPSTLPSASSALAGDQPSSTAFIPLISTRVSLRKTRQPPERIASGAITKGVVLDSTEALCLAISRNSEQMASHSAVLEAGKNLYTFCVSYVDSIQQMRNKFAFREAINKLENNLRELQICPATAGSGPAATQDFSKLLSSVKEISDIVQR
T2 sequence (Q9NYY3 whole entry): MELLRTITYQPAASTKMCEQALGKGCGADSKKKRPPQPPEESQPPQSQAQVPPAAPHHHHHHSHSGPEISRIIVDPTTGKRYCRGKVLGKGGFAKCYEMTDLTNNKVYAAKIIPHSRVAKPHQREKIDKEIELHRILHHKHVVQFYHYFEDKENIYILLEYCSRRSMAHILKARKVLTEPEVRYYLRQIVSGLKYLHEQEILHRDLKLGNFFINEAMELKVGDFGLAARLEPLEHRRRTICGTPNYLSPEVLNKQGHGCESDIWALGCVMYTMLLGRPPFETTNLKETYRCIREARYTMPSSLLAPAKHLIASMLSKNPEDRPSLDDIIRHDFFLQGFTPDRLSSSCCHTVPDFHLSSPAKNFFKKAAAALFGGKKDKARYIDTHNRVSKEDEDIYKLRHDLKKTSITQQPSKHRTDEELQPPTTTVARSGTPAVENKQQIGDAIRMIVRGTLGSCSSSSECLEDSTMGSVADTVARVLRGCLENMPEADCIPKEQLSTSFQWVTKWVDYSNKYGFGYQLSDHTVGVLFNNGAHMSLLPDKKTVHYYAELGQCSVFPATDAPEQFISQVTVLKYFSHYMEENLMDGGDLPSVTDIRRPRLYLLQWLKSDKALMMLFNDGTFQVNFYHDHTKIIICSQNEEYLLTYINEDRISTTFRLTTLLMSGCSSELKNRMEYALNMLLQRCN
T5 sequence (P17948 27-1338): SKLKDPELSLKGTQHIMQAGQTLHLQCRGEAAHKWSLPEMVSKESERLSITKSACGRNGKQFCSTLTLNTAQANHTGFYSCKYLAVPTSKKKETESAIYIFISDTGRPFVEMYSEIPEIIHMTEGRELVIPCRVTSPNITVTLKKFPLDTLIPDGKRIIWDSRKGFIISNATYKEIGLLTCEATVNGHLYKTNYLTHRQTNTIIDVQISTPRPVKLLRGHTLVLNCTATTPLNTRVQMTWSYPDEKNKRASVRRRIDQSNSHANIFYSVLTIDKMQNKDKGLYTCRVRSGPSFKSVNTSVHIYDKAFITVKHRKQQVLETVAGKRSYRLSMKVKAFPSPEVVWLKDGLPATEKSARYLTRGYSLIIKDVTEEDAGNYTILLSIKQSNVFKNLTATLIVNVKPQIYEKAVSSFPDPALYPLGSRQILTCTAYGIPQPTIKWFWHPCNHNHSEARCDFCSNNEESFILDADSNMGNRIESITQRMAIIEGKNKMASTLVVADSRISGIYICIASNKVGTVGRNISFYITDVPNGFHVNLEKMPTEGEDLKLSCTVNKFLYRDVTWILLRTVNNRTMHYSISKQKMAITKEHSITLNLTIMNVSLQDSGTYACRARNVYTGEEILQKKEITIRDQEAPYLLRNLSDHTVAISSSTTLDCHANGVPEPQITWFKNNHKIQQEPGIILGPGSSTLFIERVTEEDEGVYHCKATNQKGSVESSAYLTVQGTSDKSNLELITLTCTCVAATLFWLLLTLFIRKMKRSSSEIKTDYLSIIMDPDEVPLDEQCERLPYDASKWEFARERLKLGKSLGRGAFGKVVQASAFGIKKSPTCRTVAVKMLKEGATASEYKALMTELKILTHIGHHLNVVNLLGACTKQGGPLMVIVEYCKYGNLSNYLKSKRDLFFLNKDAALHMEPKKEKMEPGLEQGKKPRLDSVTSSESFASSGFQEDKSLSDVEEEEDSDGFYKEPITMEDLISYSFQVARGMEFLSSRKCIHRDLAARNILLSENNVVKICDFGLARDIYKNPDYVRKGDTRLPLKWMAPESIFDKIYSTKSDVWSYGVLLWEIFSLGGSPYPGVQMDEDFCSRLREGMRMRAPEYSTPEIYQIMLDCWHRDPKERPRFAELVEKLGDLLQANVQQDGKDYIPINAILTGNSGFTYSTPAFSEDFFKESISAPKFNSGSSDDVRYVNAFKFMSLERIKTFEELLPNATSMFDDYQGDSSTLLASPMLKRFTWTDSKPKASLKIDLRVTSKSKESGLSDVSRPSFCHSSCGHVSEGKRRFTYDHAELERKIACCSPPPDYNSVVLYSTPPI
T4 sequence (Q96GD4 whole entry): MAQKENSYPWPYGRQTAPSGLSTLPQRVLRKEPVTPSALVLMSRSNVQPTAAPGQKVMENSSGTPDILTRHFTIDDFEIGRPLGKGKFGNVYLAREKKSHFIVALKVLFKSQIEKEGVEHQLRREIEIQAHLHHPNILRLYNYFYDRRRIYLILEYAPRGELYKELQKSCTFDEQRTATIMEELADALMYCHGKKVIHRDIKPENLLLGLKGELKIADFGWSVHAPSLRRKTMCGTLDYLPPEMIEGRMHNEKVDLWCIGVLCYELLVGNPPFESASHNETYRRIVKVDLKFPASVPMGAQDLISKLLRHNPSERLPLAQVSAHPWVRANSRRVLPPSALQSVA
Ret, sequence (P07949 29-1114): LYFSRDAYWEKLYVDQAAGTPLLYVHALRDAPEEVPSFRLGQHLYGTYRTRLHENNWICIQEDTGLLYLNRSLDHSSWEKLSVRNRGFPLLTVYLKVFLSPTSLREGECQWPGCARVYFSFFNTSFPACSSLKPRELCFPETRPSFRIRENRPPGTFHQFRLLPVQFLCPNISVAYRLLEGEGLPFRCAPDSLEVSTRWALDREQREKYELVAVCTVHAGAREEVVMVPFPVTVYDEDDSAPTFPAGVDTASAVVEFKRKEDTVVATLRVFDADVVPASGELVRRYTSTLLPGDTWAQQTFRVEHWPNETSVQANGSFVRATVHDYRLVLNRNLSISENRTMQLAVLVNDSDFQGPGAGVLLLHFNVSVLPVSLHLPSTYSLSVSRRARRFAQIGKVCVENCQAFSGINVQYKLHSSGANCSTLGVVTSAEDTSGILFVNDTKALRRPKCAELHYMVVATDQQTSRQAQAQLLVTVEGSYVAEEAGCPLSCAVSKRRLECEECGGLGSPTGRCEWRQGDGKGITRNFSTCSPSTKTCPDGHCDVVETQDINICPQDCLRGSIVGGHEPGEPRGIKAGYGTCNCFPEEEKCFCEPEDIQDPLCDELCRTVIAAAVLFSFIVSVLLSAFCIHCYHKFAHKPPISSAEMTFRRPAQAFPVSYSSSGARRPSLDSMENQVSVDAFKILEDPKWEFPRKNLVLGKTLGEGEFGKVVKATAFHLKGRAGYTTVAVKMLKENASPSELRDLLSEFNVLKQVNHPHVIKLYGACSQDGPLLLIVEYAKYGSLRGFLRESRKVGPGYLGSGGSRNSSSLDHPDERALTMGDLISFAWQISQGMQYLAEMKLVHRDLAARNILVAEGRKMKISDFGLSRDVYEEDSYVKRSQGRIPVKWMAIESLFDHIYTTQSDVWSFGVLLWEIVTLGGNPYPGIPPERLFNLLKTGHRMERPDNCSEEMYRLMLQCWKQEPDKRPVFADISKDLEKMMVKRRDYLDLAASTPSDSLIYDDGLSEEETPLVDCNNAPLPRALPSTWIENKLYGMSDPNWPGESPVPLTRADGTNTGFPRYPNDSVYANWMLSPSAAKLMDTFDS
Lyn, sequence (P07948 whole entry): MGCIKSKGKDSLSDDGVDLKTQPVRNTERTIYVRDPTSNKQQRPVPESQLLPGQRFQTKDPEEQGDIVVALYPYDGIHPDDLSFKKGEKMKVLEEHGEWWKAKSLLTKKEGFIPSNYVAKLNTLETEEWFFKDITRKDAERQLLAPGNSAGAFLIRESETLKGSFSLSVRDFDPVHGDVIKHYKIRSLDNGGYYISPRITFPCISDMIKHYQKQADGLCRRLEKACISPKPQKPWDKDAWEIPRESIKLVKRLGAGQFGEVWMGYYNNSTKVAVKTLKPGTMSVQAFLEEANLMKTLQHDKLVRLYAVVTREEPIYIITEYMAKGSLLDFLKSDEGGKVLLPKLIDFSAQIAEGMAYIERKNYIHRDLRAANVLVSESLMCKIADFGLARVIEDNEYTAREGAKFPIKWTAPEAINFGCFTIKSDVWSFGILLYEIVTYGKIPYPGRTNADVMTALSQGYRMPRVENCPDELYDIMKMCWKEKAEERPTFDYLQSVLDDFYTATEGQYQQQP

With O=C1Nc2ccccc2/C1=C\c1ccc2c(/C=C/c3ccncc3)n[nH]c2c1 [Example A57, (E)-3-((3-((E)-2-(pyridin-4-yl)vinyl)-1H-indazol-6-yl)methylene)-indolin-2-one] the IC50 [1] was less than 5 µM, the inhibition at 10 µM [2] was greater than 50% and the IC50 [3] was less than 5 µM. The IC50 [4] was less than 5 µM, the IC50 [5] was less than 5 µM and the IC50 [6] was less than 5 µM. The IC50 [7] was less than 5 µM, the IC50 [8] was less than 5 µM and the “Inhibition of HUV-EC-C Cell Tube Formation (percentage of the control tube count)” value [9] was “anti-agiogenic effects at micromolar concentrations; also recorded: inhibition of HUV-EC-C Cell Tube Formation”. It also gave an IC50 [10] of less than 5 µM, an IC50 [11] of less than 5 µM and an IC50 [12] of less than 5 µM. The IC50 [13] was less than 5 µM.
